How the values were obtained:
opiate receptor sites = details: isolated guinea pig ileum twitch response, dose response curve compared with Met enkephalin
Description: The test used for the detection of their agonist activity at opiate receptor sites is that employing the transmurally stimulates guinea pig ileum preparation described in Kosterlitz et al., Brit. J. Pharmacol, and Chemotherapy 33. 266-276 (1968). […] Exp. Ther. 125, 237 (1959) and by the rat tail flick test (intravenous administration) according to Jansen et al., Arzneim Forsch. 13, 266 (1963).
In the above mentioned test method of Kosterlitz et al male or female guinea pigs (Duncan Hartley strain) are killed by a blow on the head and a portion of the ileum removed and set up in an isolated organ bath of 50 ml volume. A `twitch` response is produced by low frequency (0.1 Hz) stimulation with 0.5 msec rectilinear pulses. A test compound is dissolved in distilled water to produce a stock solution of concentration 1 mg/ml. Serial dilutions are carried out using Krebs solution to produce concentrations of 10 μg, 1 μg and 0.1 μg/ml. The compound is tested by adding between 0.1-0.3 ml of the solutions to the organ bath. A dose response curve is then drawn and compared with that for Met enkephalin.

mouse = mouse phenyl-quinone anti writhing test of Hendershot et al (H & F); format: in vivo; details: i.v.
Description: (§1) J. Pharmacol, and Chemotherapy 33. 266-276 (1968). […] 13, 266 (1963).

rat = rat tail flick test (R.T.F.), intravenous administration; format: in vivo; details: hot water 55° as nociceptive stimulus, i.v.
Protocol: as §1
In the rat tail flick test hot water (maintained at 55°±1°C.) is used as the nociceptive stimulus.

SMILES | G.P.I. Potency (X Met enkephalin) (opiate receptor sites) | H & F ED50 (mouse) [mg/kg] | R.T.F. ED50 (rat) [mg/kg]
C[C@@H](NC(=O)[C@@H](N)Cc1ccc(O)cc1)C(=O)NCC(=O)N(C)[C@@H](Cc1ccccc1)C(=O)NCCCC(=O)N(C)c1ccccc1 [Example 19, HTyrDAlaGlyMePheNH(CH2)3 CONMePh] | 23.2 | – | –
C[C@@H](NC(=O)[C@@H](N)Cc1ccc(O)cc1)C(=O)NCC(=O)N(C)[C@@H](Cc1ccccc1)C(=O)NCCCN(C)C [Example 2, L-Tyrosyl-D-alanylglycyl-N-methyl-L-phenylalanine-3-dimethylaminopropylamide] | 7.2 | 0.28 | 2.0
C[C@@H](NC(=O)[C@@H](N)Cc1ccc(O)cc1)C(=O)NCC(=O)N(C)[C@@H](Cc1ccccc1)C(=O)NCCN(C)C [Example 4, L-Tyrosyl-D-alanylglycyl-N-methyl-L-phenylalanine-2-dimethylaminoethylamide] | 8.5 | 0.003 | 1.4
C[C@@H](NC(=O)[C@@H](N)Cc1ccc(O)cc1)C(=O)NCC(=O)N(C)[C@@H](Cc1ccccc1)C(=O)NCC[N+](C)(C)[O-] [Example 22, HTyrDAlaGlyMePheNH(CH 2)2 N(O)Me2] | 6.5 | – | –
CC(=O)NCCNC(=O)[C@H](Cc1ccccc1)NC(=O)CNC(=O)[C@@H](C)NC(=O)[C@@H](N)Cc1ccc(O)cc1 [Example 1, L-Tyrosyl-D-alanylglycyl-L-phenylalanin-2-acetamidoethylamide] | 2.6 | 0.01 | –
C[C@@H](NC(=O)[C@@H](N)Cc1ccc(O)cc1)C(=O)NCC(=O)N(C)[C@@H](Cc1ccccc1)C(=O)NCCN [Example 6, L-Tyrosyl-D-alanylglycyl-N-methyl-L-phenylalanine-2-aminoethylamide] | 13.0 | 0.028 | 0.37
